# Laboratory results published in patent publication US20230192701A1, “BICYCLIC KINASE INHIBITORS AND USES THEREOF” (iOmx Therapeutics AG, priority 2020, published 2023).
# “Also recorded” adds a separate entry of the source.
# Experiments:
# [1] = Mouse liver microsomal stability; format: in vitro ADME; conditions: pH 7.4; mouse liver microsomes, NADPH, 37°C
# Description: (§1) Briefly, human and liver microsomal stability was determined by pre-incubation of 2.5 uL compound and 75 uL of the respective liver microsomes in potassium phosphate buffer (pH 7.4) at 37° C. After adding of NADPH as cofactor and further incubation at 37° C. for 60 min, acetonitrile containing internal standard was added, and the sample was vortexed for 5 min at 1200 rpm and then centrifuged 10 min at 4000 rpm.
# (§2) LC-MS/MS was performed for all assays using a C18 column (50*4.6 mm, 5 um) for the CaCo2 assay, or a C18 column (50*4.6 mm, 4 um) for the other assays. The mobile phases used were 10 mM Ammonium Acetate with 0.1% Formic acid (aqueous) and 100% Acetonitrile (organic).
# [2] = test system: MC38 tumour cells; experiment: TNF-sensitised cell viability assay (CellTiter-Glo), MC38; format: cell-based, murine; conditions: Mus musculus, MC-38, read-out: MC38 IC50 (at 100 ng/ml rMuTNF); 100 ng/ml rMuTNF, 72 h
# Description: (§3) Cell viability of HCT116 tumour cells was measured using the CellTiter-Glo (CTG) luminescent cell viability assay (Promega, Madison, USA) according to the manufacturer's protocol. In short, 1×10^3 HCT116 cells were seeded in a 384-well plate for 24 h and subsequently treated with different concentrations of compounds and 10 ng/ml rHuTNF for 72 h at 37° C. and 5% CO2. After incubation, CTG reagent was added to the wells and cells were lysed for 10 min. Read-out was performed using the Tecan reader with 0.1 sec counting time. TNF-induced cell killing in human PANC1 and murine MC38 tumour cells was measured analogously to the assay in human HCT116 cells, except that for the PANC1 assay 100 ng/ml rHuTNF and for the MC38 assay 100 ng/ml rMuTNF were used.
# [3] = Murine plasma protein binding (RED method); format: in vitro ADME; conditions: mouse
# Description: (§4) Human and mice protein plasma binding was determined using the Plasma Protein Binding by RED Method. Briefly, 200 uL of the respective plasma containing the test compound (10 uM) was spiked into the donor well (RED Chamber) of the insert. 350 uL of PBS was spiked into receiver well (white chamber). The plate was incubated at 37° C. in a thermomixer at 400 rpm for 5 hours. The samples were matrix equilibrated with opposite matrix (25 uL blank buffet/Plasma). Matrix matched samples were precipitated with 200 uL of Acetonitrile containing Internal standard. Samples were vortexed at 1000 rpm for 5 min and centrifuged at 4000 rpm for 10 min. The supernatant was diluted 2 folds with water and % bound and unbound protein and % recovery at 5 h was determined by LC-MS/MS.
# as §2
# [4] = Human hepatocyte stability; format: in vitro ADME; conditions: human hepatocytes, 37°C
# Description: (§5) Determination of human and mice hepatocyte stability was conducted as follows. 200 uL of the respective hepatocyte cell suspension (2×10e6/ml) was preincubated at 37° C. for 10 min. Then, 200 uL of a 2 uM working stock of the test compound was added to the hepatocyte cell suspension, and the mixture was further incubated at 37° C. and 500 rpm. The reaction was stopped at 30, 60 and 120 min by precipitating 50 uL of the incubation mixture with 200 uL of acetonitrile. Samples were vortexed for 5 min at 1200 rpm and centrifuged at 4000 rpm for 10 min. Intrinsic clearance and half-life were analysed using LC-MS/MS.
# as §2
# [5] = molecular target: SIK2 (Homo sapiens, UniProt Q9H0K1); experiment: radiometric protein kinase assay (33PanQinase Activity Assay), SIK2; format: biochemical; conditions: for IC50: ATP 1.0 μM, substrate RBER-CHKtide; for inhibiting SIK2 compared to PY1: in words
# Description: (§6) The IC50s of the compounds against the SIK family of protein-serine/threonine kinases (SIK2 and SIK3) were determined as followed. Briefly, a radiometric protein kinase assay (33PanQinase® Activity Assay) was used for measuring the kinase activity of the two protein kinases. The kinase assays were performed in 96-well FlashPlates™ from PerkinElmer (Boston, Mass., USA) in a 50 uL reaction volume. The reaction cocktail was pipetted in four steps in the following order: • […] (standard buffer/[gamma-33P]-ATP) • 10 uL of ATP solution (in water) • 5 uL of test compound (in 10% DMSO) • 20 uL enzyme/substrate mix
# (§7) The following amounts of enzyme and applicable substrate were used per well:
# (§8) The reaction cocktails were incubated at 30 °C for 60 minutes. The reaction was stopped with 50 uL of 2% (v/v) H3PO4, plates were aspirated and washed two times with 200 μL 0.9% (w/v) NaCl. Incorporation of 33Pi was determined with a microplate scintillation counter (Microbeta, Wallac). All assays were performed with a BeckmanCoulter/SAGIAN™ Core System.
# [6] = Mouse hepatocyte stability; format: in vitro ADME; conditions: mouse hepatocytes, 37°C
# Description: as §5, §2
# [7] = Kinetic solubility assay; format: physicochemical; conditions: aqueous buffer, kinetic from dmso stock; PBS buffer pH 7.4, 1.0% DMSO, 24 h at RT
# Description: The Kinetic solubility assay was conducted as follows. 4 uL compound of the 50 mM DMSO stock was added to deep well plate containing 396 uL PBS buffer (pH 7.4). The DMSO content in the sample was 1.0%, and the compound concentration 500 μM. The sample plate was vortexed at 800 rpm for 24 h at RT on a thermomixer. At the end of the incubation period, the sample plate was centrifuged at 4000 rpm for 10 mins. 3 uL of supernatant was transferred to well containing 297 uL of ISTD in Acetonitrile water:50:50, v/v and analysed in LC-MS/MS against a calibration curve (CC).
# [8] = CaCo2 permeability and efflux assay; format: in vitro ADME; conditions: human, Caco-2; CaCo2, mean efflux ratio
# Description: (§9) To determine apparent permeability of the compounds an assay using a Caco-2 cells monolayer (cultured for 21d) in a 24-well format (poly carbonate high pore density plate with 0.4 μm pore size and a 0.7 cm2 active membrane area; Millipore) was performed as followed. 800 uL of DMEM was added to the basal compartment of the 24 well-plate and 60000 CaCo2 cells/well were seeded in the apical wells and incubated in a CO2 incubator at 37° C. for proliferation of cells. Apical to Basal permeability was determined by adding 400 uL of test compound to the apical well and 800 uL of HBSS buffer with 2% BSA to the basal well. 25 uL of basal sample was collected after 120 min and processed as stated below. Basal to Apical permeability was determined by adding 800 uL of test compound to basal well and 400 uL of HBSS buffer with 2% BSA to apical well. 25 uL of apical sample was collected after 120 min and processed as stated below. The samples were processed by diluting the donor samples 1:1 with HBSS containing 2% BSA and the receiver samples 1:1 with HBSS buffer. Samples were then precipitated with 200 uL of acetonitrile containing internal standard, vortexed for 5 min at 1000 rpm, and centrifuged at 4000 rpm for 20 min. 150 uL of supernatant was diluted with 150 uL of water and submitted for LC-MS/MS analysis, and Bi-directional (A-B and B-A) apparent permeability (Papp) was calculated.
# as §2
# [9] = test system: Caco-2 cells monolayer; experiment: CaCo2 permeability and efflux assay; format: in vitro ADME; conditions: CaCo2, apical to basal, 120 min
# Description: as §9, §2
# [10] = molecular target: SIK3 (Homo sapiens, UniProt Q9Y2K2); experiment: radiometric protein kinase assay (33PanQinase Activity Assay), SIK3; format: biochemical; conditions: for IC50: ATP 1.0 μM, substrate RBER-CHKtide; for inhibiting SIK3 compared to PY1: in words
# Description: as §6, §7, §8
# [11] = Human plasma-protein binding (RED method); format: in vitro ADME
# Description: as §4, §2
# [12] = Human liver microsomal stability; format: in vitro ADME; conditions: pH 7.4; human liver microsomes, NADPH, 37°C
# Description: as §1, §2
# [13] = molecular target: 335 wild-type protein kinases; experiment: single-point inhibition assays, residual activity (ProQinase Kinase Profiler); format: biochemical; conditions: single-point 0.1 uM and 1 uM, 335 kinases
# Description: Several compounds of Formula (I) described herein were also tested in single-point (0.1 uM and 1 uM) inhibition assays over a diverse set of 335 wild-type protein (ProQinase “Kinase Profiler”; ProQinase, Freiburg, Germany), in which the residual activity of each kinase was determined. […] Secondly, the residual activity of each kinase was compared to other compounds tested (in particular, against the prior art compounds PY1) by use of scatter plots.
# [14] = test system: HCT116 and PANC1; experiment: toxicity against the cell lines in the absence of TNF; format: cell-based; conditions: 0 ng/mL TNF, up to concentrations of 10 uM
# Description: Typically, those compounds of Formula (I) tested were less toxic against the cell lines than the prior art compound PY1 when tested (eg, in the absence of TNF), especially against the human cell lines such as HCT116 (data not shown).
# as §3
# Sequence of SIK3 (Q9Y2K2 whole entry): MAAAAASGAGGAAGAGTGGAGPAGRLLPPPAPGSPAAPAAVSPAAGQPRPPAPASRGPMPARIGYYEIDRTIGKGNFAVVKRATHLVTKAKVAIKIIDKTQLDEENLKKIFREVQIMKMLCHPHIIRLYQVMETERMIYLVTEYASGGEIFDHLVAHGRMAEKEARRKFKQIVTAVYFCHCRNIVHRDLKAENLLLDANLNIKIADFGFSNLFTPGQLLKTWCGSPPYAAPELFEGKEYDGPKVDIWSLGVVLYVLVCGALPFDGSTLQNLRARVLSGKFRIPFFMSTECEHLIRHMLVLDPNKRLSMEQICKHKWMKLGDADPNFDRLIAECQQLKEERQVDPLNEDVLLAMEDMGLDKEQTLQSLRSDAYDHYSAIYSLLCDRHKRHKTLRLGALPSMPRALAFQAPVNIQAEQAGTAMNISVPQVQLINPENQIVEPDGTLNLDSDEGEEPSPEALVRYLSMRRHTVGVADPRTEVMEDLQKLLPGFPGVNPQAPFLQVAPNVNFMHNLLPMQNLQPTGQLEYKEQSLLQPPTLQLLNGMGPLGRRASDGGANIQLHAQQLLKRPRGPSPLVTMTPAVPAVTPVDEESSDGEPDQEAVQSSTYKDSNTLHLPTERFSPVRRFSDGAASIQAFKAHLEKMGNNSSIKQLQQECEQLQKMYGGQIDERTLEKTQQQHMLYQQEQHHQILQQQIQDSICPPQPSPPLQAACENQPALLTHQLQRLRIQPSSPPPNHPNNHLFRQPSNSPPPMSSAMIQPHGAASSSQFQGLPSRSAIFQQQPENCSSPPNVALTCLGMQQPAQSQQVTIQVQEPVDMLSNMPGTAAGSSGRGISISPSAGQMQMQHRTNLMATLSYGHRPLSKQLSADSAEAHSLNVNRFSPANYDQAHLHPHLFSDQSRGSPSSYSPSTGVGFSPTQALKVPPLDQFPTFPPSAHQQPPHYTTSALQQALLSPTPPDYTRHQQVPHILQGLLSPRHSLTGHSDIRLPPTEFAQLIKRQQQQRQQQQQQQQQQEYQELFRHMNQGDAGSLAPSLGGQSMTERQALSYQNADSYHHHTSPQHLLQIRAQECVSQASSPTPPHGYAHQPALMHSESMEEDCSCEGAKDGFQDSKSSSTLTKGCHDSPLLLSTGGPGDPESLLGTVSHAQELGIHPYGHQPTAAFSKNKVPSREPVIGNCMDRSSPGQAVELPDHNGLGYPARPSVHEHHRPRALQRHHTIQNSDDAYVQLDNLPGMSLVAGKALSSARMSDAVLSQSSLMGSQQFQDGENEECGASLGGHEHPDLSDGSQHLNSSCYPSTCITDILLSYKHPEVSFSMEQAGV
# Sequence of SIK2 (Q9H0K1 whole entry): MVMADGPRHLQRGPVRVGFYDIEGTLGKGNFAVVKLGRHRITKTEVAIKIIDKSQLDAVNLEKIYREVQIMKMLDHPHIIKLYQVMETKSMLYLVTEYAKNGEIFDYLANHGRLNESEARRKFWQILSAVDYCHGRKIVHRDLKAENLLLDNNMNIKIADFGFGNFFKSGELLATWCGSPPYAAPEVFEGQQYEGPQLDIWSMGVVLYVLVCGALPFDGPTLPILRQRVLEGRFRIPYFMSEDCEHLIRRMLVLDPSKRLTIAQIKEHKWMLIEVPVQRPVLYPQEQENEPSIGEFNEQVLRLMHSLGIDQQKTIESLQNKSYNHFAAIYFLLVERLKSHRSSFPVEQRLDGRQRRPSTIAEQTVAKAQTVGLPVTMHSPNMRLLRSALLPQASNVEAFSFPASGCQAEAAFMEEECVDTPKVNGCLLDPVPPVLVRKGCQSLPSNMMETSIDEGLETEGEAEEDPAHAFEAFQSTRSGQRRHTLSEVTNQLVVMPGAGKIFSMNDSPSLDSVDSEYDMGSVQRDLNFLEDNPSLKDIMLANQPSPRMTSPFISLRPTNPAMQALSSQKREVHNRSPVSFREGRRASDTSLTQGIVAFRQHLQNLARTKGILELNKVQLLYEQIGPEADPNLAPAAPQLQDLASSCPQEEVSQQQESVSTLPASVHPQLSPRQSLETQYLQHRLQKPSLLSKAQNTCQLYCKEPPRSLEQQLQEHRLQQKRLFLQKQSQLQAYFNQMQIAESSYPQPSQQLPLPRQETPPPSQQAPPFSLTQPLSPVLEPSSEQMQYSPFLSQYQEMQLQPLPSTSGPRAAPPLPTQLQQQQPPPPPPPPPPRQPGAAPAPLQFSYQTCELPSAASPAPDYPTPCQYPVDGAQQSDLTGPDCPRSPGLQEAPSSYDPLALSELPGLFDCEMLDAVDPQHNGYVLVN
Structure (SMILES),half-life [1] [min],IC50 [2] [nM],"recovery at 5 h, 10 uM [3] [%]",half-life at 1 uM [4] [min],IC50 [5] [nM],inhibiting SIK2 compared to PY1 [5],half-life at 1 uM [6] [min],solubility kinetic at 24 h [7] [µM],efflux ratio at 120 min [8],A > B(10 EE-06 cm/s) [9],IC50 [10] [nM],inhibiting SIK3 compared to PY1 [10],"recovery at 5 h, 10 uM [11] [%]",half-life [12] [min],kinases inhibited less strongly than by PY1 [13],kinases inhibited more strongly than by PY1 [13],overall kinase profile compared to prior art compound PY1 [13],relevant kinases still potently inhibited [13],toxicity against the cell lines in the absence of TNF [14]
"COc1ccc(N2C(=O)N(c3c(C(F)F)csc3Cl)Cc3cnc(Nc4ccc(C5CCN(C)CC5)cc4)nc32)nc1 [AA2, 3-(2-chloro-4-(difluoromethyl)thiophen-3-yl)-l-(5-methoxypyridin-2-yl)-7-((4-(l-methylpiperidin-4-yl)phenyl)amino)-3,4-dihydropyrimido[4,5-d]pyrimidin-2(1H)-one]",10,500 to 1000,38,186,< 50,superior in inhibiting SIK2 and SIK3 compared to PY1,82,9.1,2.7,12.9 10 EE-06 cm/s,< 50,superior in inhibiting SIK2 and SIK3 compared to PY1,32,12,,,,,
"COc1ccc(N2C(=O)N(c3c(CF)csc3Cl)Cc3cnc(Nc4ccc(C5CCN(C)CC5)cc4)nc32)nc1 [AA3, 3-(2-chloro-4-(fluoromethyl)thiophen-3-yl)-l-(5-methoxypyridin-2-yl)-7-((4-(l-methylpiperidin-4-yl)phenyl)amino)-3,4-dihydropyrimido[4,5-d]pyrimidin-2(1H)-one]",20,500 to 1000,45,42,< 50,superior in inhibiting SIK2 and SIK3 compared to PY1,108,9.1,2.9,8.4 10 EE-06 cm/s,< 50,superior in inhibiting SIK2 and SIK3 compared to PY1,34,16,"SRMS, NLK, RIPK5, LTK and ALK","TAOK2, SYK, TYRO3, ACVR2B, MEKK2, AXL, ITK, MAP3K11, TRKA, MERTK, ZAP70, and MEKK2, and in particular CSF1R, HCK, TXK, YES, LCK, SRC, EPHA1 and FGR",potent inhibitor of surprisingly more kinases than prior art compound PY1,,
"COc1ccc(N2C(=O)N(c3c(C)noc3C)Cc3cnc(Nc4ccc(C5CCN(C)CC5)cc4OC)nc32)nc1 [AA5, 3-(3,5-dimethylisoxazol-4-yl)-7-((2-methoxy-4-(1-methylpiperidin-4-yl)phenyl)amino)-1-(5-methoxypyridin-2-yl)-3,4-dihydropyrimido[4,5-d]pyrimidin-2(1H)-one]",,,,,400 to 800,,,,,,800 to 1000,,,,"FYN, BTK, EPHB2, LCK and CSK",,potently inhibited far fewer kinases than prior art compound PY1,"TXK, ERBB4, EPHB1, FRK, BRK, EPHA4, ACK1, EGFR, EPHA1 and SIK1; also recorded: reasonably potent against CSF1R",essentially non-toxic
